# Experimental data as given in US12005127B2, “DNA-PK inhibitors” (VERTEX PHARMACEUTICALS INCORPORATED, priority 2018, dated 2024).
# Tests used:
# DNA-PK [1] = molecular target: T1, DNA-PK (Homo sapiens, UniProt P78527); assay: DNA-PK inhibition assay (radiometric 33P-ATP kinase assay); format: biochemical; conditions: competitive tight-binding fit
# Method: Compounds were screened for their ability to inhibit DNA-PK kinase using a standard radiometric assay. Briefly, in this kinase assay the transfer of the terminal ^33P-phosphate in ^33P-ATP to a peptide substrate is interrogated. The assay was carried out in 384-well plates to a final volume of 50 μL per well containing approximately 6 nM DNA-PK, 50 mM HEPES (pH 7.5), 10 mM MgCl2, 25 mM NaCl, 0.01% BSA, 1 mM DTT, 10 μg/mL sheared double-stranded DNA (obtained from Sigma), 0.8 mg/mL DNA-PK peptide (Glu-Pro-Pro-Leu-Ser-Gln-Glu-Ala-Phe-Ala-Asp-Leu-Trp-Lys-Lys-Lys, obtained from American Peptide), and 100 μM ATP. Accordingly, compounds of the invention were dissolved in DMSO to make 10 mM initial stock solutions. Serial dilutions in DMSO were then made to obtain the final solutions for the assay. A 0.75 μL aliquot of DMSO or inhibitor in DMSO was added to each well, followed by the addition of ATP substrate solution containing ^33P-ATP (obtained from Perkin Elmer). The reaction was started by the addition of DNA-PK, peptide and ds-DNA. After 45 min, the reaction was quenched with 25 μL of 5% phosphoric acid. The reaction mixture was transferred to MultiScreen HTS 384-well PH plates (obtained from Millipore), allowed to bind for one hour, and washed three times with 1% phosphoric acid. Following the addition of 50 μL of Ultima Gold™ high efficiency scintillant (obtained from Perkin Elmer), the samples were counted in a Packard TopCount NXT Microplate Scintillation and Luminescence Counter (Packard BioScience). The Ki values were calculated using Microsoft Excel Solver macros to fit the data to the kinetic model for competitive tight-binding inhibition. In Tables 1 and 2 below, Ki of less than 0.001 micromolar for the inhibition of DNA-PK is indicated as “A”; Ki of equal to or greater than 0.001 micromolar and less than 0.01 micromolar for the inhibition of DNA-PK as “B”; Ki of equal to or greater than 0.01 micromolar and less than 0.1 micromolar for the inhibition of DNA-PK as “C”; Ki of equal to or greater than 0.1 micromolar and less than 1 micromolar for the inhibition of DNA-PK for “D”; and Ki of equal to or greater than 1 micromolar as “E.”
# DNA-PK [2] = molecular target: T1, DNA-PK; assay: DNA-PK cellular assay (pDNA-PK Ser2056 sandwich ELISA, NCS-induced DSBs); format: cell-based; set-up: endogenous in cells; host or cells: A549 (human NSCLC); conditions: pDNA-PK (Ser2056) in A549 cells, NCS 50 ng/ml, 15 minutes
# From the text: DNA-PK is recruited to and activated by double-strand breaks (DSB) in DNA and plays a critical role in the non-homologous end-joining (NHEJ) repair mechanism. Upon activation, DNA-PK undergoes rapid autophosphorylation at Ser2056. The measure of pDNA-PK (Ser2056) in response to DNA DSBs provides a cellular signaling assay to evaluate potential DNA-PK kinase inhibitors.
# Neocarzinostatin (NCS) was used as a radiomimetic to induce DNA DSBs. The sandwich ELISA used the Meso Scale Discovery electrochemiluminescence technology platform which typically provides greater sensitivity than traditional ELISA formats.
# A549 (human NSCLC) cells are plated at 25,000 cells/well in 100 uL of DMEM (Invitrogen cat #11995-040) supplemented with 1% Pen/Strep (Invitrogen cat #15070-063) and 10% FBS (Hyclone cat #SH30071.03HI) on black clear bottom 96 well plates (Costar #3904) and allowed to adhere overnight at 37° C. in 5% CO2. The following day, the compounds and NCS solutions are prepared by adding 100 ul of DMEM growth media per well in a Corning polypropylene V-bottom deep well plate (cat #3357). The HP Compound Dilution D300 instrument was used to add compounds to the appropriate wells using the setting logarithmic and 16-point titration singlet.
# The DMEM NCS solution was prepared by adding NCS to DMEM media at 200 ng/ml (final assay concentration, 50 ng/ml). 100 ul of the DMEM/NCS solution is added to the wells with the compounds. 100 ul of this solution is then immediately added to the A549 cells. The cells are then incubated for 15 minutes at 37° C.
# The complete lysis buffer is prepared by adding 1% Phosphatase inhibitor (Sigma cat #P2850) and 1% Protease Inhibitor (Sigma cat #P8340) to the Lanthascreen cellular assay lysis buffer (Invitrogen cat #PV5598). The media from the plate was removed by flicking and patting dry. 60 uL/well of the complete lysis buffer is added to each well. These plates are then incubated for at least 5 minutes in the lysis buffer at room temperature to ensure complete lysis. At this point the lysates can be transferred to prepared ELISA plates.
# The prepared ELISA plates were prepared blocking the Mesoscale Goat-Anti-Mouse (GAM) plates with 150 uL/well of 3% Blocker A (Mesoscale cat #R93-BA) for one hour at room temperature with shaking. The capture antibody is prepared by diluting the mouse monoclonal anti-total DNA-PK (AbCAM cat #ab1832) to 3 ug/mL in 1% Blocker A. The blocked plates rinsed once with 200 uL D-PBS. The capture antibody (25 ul/well) was added to each well and allowed to incubate for an hour at room temperature while shaking. This was rinsed once with 200 ul D-PBS before adding 25 uL of the prepared cell lysate from the cell plates to the Mesoscale GAM ELISA plate. The lysate is then incubated on the plates for one hour at room temperature with shaking. The detection antibody (Epitomics rabbit anti-pS2056-DNA-PK) is prepared at a 1/1000 dilution (to a final concentration of 450 ng/mL) in 1% Blocker A. The GAM plates are washed once with 200 uL of D-PBS and then 25 uL/well of the detection antibody is added to the plate. This incubates for one hour at room temperature with shaking. The Sulfotag is prepared by adding Sulfo-Tag Goat-Anti-Rabbit antibody (Mesoscale cat #R32AB-1) at a 1/500 dilution (1 ug/mL) to 1% Blocker A. The GAM plates are washed with 200 uL of D-PBS and then 25 uL of the Sulfotag preparation is added to each well. Once the plates have been incubated with the final solution, the Sulfotag, for 1 hour, they are washed once with 200 uL of D-PBS. The 1× Read Buffer (Mesoscale cat #R32-TC) is made by diluting the 4× buffer in ddH20. 150 uL of 1× buffer is added to each well of the GAM plate and then the plate is read on the Sector Imager 2400. The readout (electrochemiluminescence) was plotted against the concentration of each compound and the IC50s were generated using Prism software (GraphPad Prism version 6.0e for Macintosh). […]
Structure (SMILES),"Ki (DNA-PK [1]; Table 1, 100 μM ATP)",IC50 (DNA-PK [2]; Table 1),"Ki (DNA-PK [1]; Table 2, 100 μM ATP)",IC50 (DNA-PK [2]; Table 2)
"Cc1nc2c(c(N[C@H]3CC[C@@H](Oc4cc(N5CCOCC5)cc5ncncc45)CC3)n1)OCC2 [Compound 1, 2-methyl-N-[4-(7-morpholinoquinazolin-5-yl)oxycyclohexyl]-6,7-dihydrofuro[3,2-d]pyrimidin-4-amine]",< 0.001 µM,< 100 nM,–,–
"Cc1nc2c(c(N[C@H]3CC[C@@H](Oc4cc(N5CCOCC5)cc5ncnc(C#N)c45)CC3)n1)OCC2 [Compound 2, 5-[4-[(2-methyl-6,7-dihydrofuro[3,2-d]pyrimidin-4-yl)amino]cyclohexoxy]-7-morpholino-quinazoline-4-carbonitrile]",< 0.001 µM,< 100 nM,–,–
"Cc1nccc(N[C@H]2CC[C@@H](Oc3cc(N4CCOCC4)cc4ncncc34)CC2)n1 [Compound 3, 2-methyl-N-[4-(7-morpholinoquinazolin-5-yl)oxycyclohexyl]pyrimidin-4-amine]",< 0.001 µM,< 100 nM,–,–
"Cc1nccc(N[C@H]2CC[C@@H](Oc3cc(N4CCOCC4)cc4ncnc(C#N)c34)CC2)n1 [Compound 4, 5-[4-[(2-methylpyrimidin-4-yl)amino]cyclohexoxy]-7-morpholino-quinazoline-4-carbonitrile]",< 0.001 µM,< 100 nM,–,–
"COc1ncnc2cc(N3CCOCC3)cc(O[C@H]3CC[C@@H](Nc4nc(C)nc5c4OCC5)CC3)c12 [Compound 5, N-[4-(4-methoxy-7-morpholino-quinazolin-5-yl)oxycyclohexyl]-2-methyl-6,7-dihydrofuro[3,2-d]pyrimidin-4-amine]",< 0.001 µM,< 100 nM,–,–
"COc1ncnc2cc(N3CCOCC3)cc(O[C@H]3CC[C@@H](Nc4ccnc(C)n4)CC3)c12 [Compound 6, N-[4-(4-methoxy-7-morpholino-quinazolin-5-yl)oxycyclohexyl]-2-methyl-pyrimidin-4-amine]",< 0.001 µM,< 100 nM,–,–
"O=C1c2ccccc2C(=O)N1[C@H]1CC[C@@H](Oc2cc(N3CCOCC3)cc3ncncc23)CC1 [Compound 7, 2-[4-(7-morpholinoquinazolin-5-yl)oxycyclohexyl]isoindoline-1,3-dione]",0.001 to 0.01 µM,100 to 1000 nM,–,–
"CNC(=O)c1ccnc(N[C@H]2CC[C@@H](Oc3cc(N4CCOCC4)cc4ncncc34)CC2)n1 [Compound 8, N-methyl-2-[[4-(7-morpholinoquinazolin-5-yl)oxycyclohexyl]amino]pyrimidine-4-carboxamide]",< 0.001 µM,< 100 nM,–,–
"CNC(=O)c1ccnc(N[C@H]2CC[C@@H](Oc3cc(N4CCOCC4)cc4ncnc(OC)c34)CC2)n1 [Compound 9, 2-[[4-(4-methoxy-7-morpholino-quinazolin-5-yl)oxycyclohexyl]amino]-N-methyl-pyrimidine-4-carboxamide]",< 0.001 µM,< 100 nM,–,–
"Cc1ncc2c(O[C@H]3CC[C@@H](NC(=O)OC(C)(C)C)CC3)cc(N3CCOCC3)cc2n1 [Compound 10, tert-butyl N-[4-(2-methyl-7-morpholino-quinazolin-5-yl)oxycyclohexyl]carbamate]",0.001 to 0.01 µM,≥ 1000 nM,–,–
"CNC(=O)c1ccnc(N[C@H]2CC[C@@H](Oc3cc(N4CCOCC4)cc4nc[nH]c(=O)c34)CC2)n1 [Compound 11, N-methyl-2-[[4-[(7-morpholino-4-oxo-3H-quinazolin-5-yl)oxy]cyclohexyl]amino]pyrimidine-4-carboxamide]",< 0.001 µM,≥ 1000 nM,–,–
"Cc1nccc(N[C@H]2CC[C@@H](Oc3cc(N4CCOCC4)cc4nc(C)ncc34)CC2)n1 [Compound 12, 2-methyl-N-[4-(2-methyl-7-morpholino-quinazolin-5-yl)oxycyclohexyl]-pyrimidin-4-amine]",0.001 to 0.01 µM,100 to 1000 nM,–,–
"Cc1nccc(N[C@H]2CC[C@@H](Oc3cc(N4CCOCC4)cc4ncn(C)c(=O)c34)CC2)n1 [Compound 21, 3-methyl-5-[4-[(2-methylpyrimidin-4-yl)amino]cyclohexoxy]-7-morpholino-quinazolin-4-one]",–,100 to 1000 nM,–,–
"CNC(=O)c1ccnc(N[C@H]2CC[C@@H](Oc3cc(N4CCOCC4)cc4ncn(C)c(=O)c34)CC2)n1 [Compound 25, N-methyl-2-[[4-(3-methyl-7-morpholino-4-oxo-quinazolin-5-yl)oxycyclohexyl]amino]pyrimidine-4-carboxamide]",–,100 to 1000 nM,–,–
"Cn1cnc(C(=O)N[C@H]2CC[C@@H](Oc3cc(N4CCOCC4)cc4ncncc34)CC2)c1 [Compound 26, 1-methyl-N-((1s,4s)-4-((7-morpholinoquinazolin-5-yl)oxy)cyclohexyl)-1H-imidazole-4-carboxamide]",–,100 to 1000 nM,–,–
"c1cnc(O[C@H]2CC[C@@H](Oc3cc(N4CCOCC4)cc4ncncc34)CC2)nc1 [Compound 27, 4-[5-cis-(4-pyrimidin-2-yloxycyclohexoxy)quinazolin-7-yl]morpholine]",–,< 100 nM,–,–
"c1cnc(O[C@H]2CC[C@H](Oc3cc(N4CCOCC4)cc4ncncc34)CC2)nc1 [Compound 28, 4-[5-trans-(4-pyrimidin-2-yloxycyclohexoxy)quinazolin-7-yl]morpholine]",–,< 100 nM,–,–
"COc1ccc(COc2cc(N3CCOCC3)cc3ncnc(Cl)c23)cc1 [Compound 54, 4-[4-chloro-5-[(4-methoxyphenyl)methoxy]quinazolin-7-yl]morpholine]",–,–,0.01 to 0.1 µM,–
"COc1ccc(COc2cc(N3CCOCC3)cc3ncnc(C4CC4)c23)cc1 [Compound 56, 4-[4-cyclopropyl-5-[(4-methoxyphenyl)methoxy]quinazolin-7-yl]morpholine]",–,–,–,100 to 1000 nM
